Source: US7897633B2, “Inhibitors of glutaminyl cyclase” (Probiodrug AG, priority 2004, dated 2011)

Legend:
glutaminyl cyclase (QC) = glutaminyl cyclase (QC) (Homo sapiens, UniProt Q16769); assay: Inhibitor assay for glutaminyl cyclase (QC) activity; settings: for Res. Act. (%): rapid test of QC-inhibition: 4 mM inhibitor, substrate concentration at 1 KM
glutaminyl cyclase (QC), sequence (Q16769 29-361): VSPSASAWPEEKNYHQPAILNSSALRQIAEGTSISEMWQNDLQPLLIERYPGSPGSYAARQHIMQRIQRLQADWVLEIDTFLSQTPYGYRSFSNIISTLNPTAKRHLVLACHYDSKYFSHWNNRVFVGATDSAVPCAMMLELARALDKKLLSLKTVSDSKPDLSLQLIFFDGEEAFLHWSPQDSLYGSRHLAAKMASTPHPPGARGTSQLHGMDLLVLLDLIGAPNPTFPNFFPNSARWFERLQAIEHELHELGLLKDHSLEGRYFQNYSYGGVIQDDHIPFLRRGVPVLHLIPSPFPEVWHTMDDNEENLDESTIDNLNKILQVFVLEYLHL
Experimental: Excitation/emission wavelengths were 320/410 nm. The assay reactions were initiated by addition of glutaminyl cyclase.
Reactions were carried out at 30° C. utilizing the NOVOStar reader for microplates (BMG labtechnologies). […] Excitation/emission wavelengths were 380/460 nm. The assay reactions were initiated by addition of glutaminyl cyclase. […] The kinetic data were evaluated using GraFit software.
The initial velocities were evaluated and the enzymatic activity was determined from a standard curve of ammonia under assay conditions. All samples were measured at 30° C., using either the [sequence]luor Plus or the Sunrise (both from TECAN) reader for microplates. Kinetic data was evaluated using GraFit software.
For inhibitor testing, the sample composition was the same as described above, except of the putative inhibitory compound added. […] For detailed investigations of the inhibition and determination of Ki-values, influence of the inhibitor on the auxiliary enzymes was investigated first.

Structure (SMILES)	melting point [°C]	Ki (glutaminyl cyclase (QC)) [µM]	Res. Act. (%) (glutaminyl cyclase (QC))	further results
CNC(=S)NCCCn1ccnc1	122 to 122.5			
COc1ccc(NC(=S)NC[C@H](C)Cn2ccnc2)cc1OC	150.5 to 151.5			
COc1ccc(NC(=S)NC[C@@H](C)Cn2ccnc2)cc1OC	155 to 157.5			
COc1ccc(NC(=S)NCC2(Cn3ccnc3)CC2)cc1OC	166.5 to 168.5			
C[C@@H](C(=S)NCCCn1ccnc1)c1ccccc1	82 to 82.5			
C[C@H](C(=S)NCCCn1ccnc1)c1ccccc1	82.5 to 83.5			
S=C(NCCCn1ccnc1)C1(c2ccc(Cl)cc2)CCC1	137.5 to 139			
S=C(NCCCn1ccnc1)C1(c2ccc(Cl)cc2)CCCC1	140 to 141			
COc1ccc(C2(C(=S)NCCCn3ccnc3)CCCCC2)cc1	162.5 to 164			
COc1ccc(C2(C(=S)NCCCn3ccnc3)CC2)cc1	129 to 129.5			
COc1ccc(NC(=S)CCCCn2ccnc2)cc1OC	128 to 128.5			
COc1ccc(NC(=S)NCCn2ccnc2)cc1OC	157.5 to 159			
COc1ccc(NC(=S)NCCCCn2ccnc2)cc1OC	114.5 to 116			
COc1cc(NC(=S)NCCCn2ccnc2)cc(OC)c1	142 to 143			
CC(C)(C)NC(=S)NCCCn1ccnc1	147 to 147.5			
COc1cc(NC(=S)NCCCn2ccnc2)cc(OC)c1OC	124.5 to 125.5			
FC(F)(F)c1ccc(NC(=S)NCCCn2ccnc2)cc1 [Example 8, 1-(3-(1H-imidazol-1-yl)propyl)-3-(4-(trifluoromethyl)phenyl)thiourea]	154.5 to 155	3.93	38.5	
COC(=O)c1ccc(NC(=S)NCCCn2ccnc2)cc1 [Example 9]		1.19		
CC(=O)c1ccc(NC(=S)NCCCn2ccnc2)cc1 [Example 10, 1-(3-(1H-imidazol-1-yl)propyl)-3-(4-acetylphenyl)thiourea]	170 to 171	1.7	17.0	
O=S(=O)(c1ccc(NC(=S)NCCCn2ccnc2)cc1)N1CCCCC1 [Example 20]		2.27	8.5	

Structure (SMILES)	melting point [°C]	Ki (glutaminyl cyclase (QC)) [µM]	Res. Act. (%) (glutaminyl cyclase (QC))	further results
CCCCNC(=S)NCCCn1ccnc1 [Example 43]			53.8	IC50 (glutaminyl cyclase (QC)): 14 µM
S=C(NCCCn1ccnc1)NC1CCCCCCC1 [Example 44]			33.1	IC50 (glutaminyl cyclase (QC)): 9.1 µM
S=C(NCCCn1ccnc1)NCC1CCCO1 (centres unmarked) [Example 46]			46.0	IC50 (glutaminyl cyclase (QC)): 12.8 µM
S=C(NCCCn1ccnc1)NCCN1CCOCC1 [Example 48]			55.0	IC50 (glutaminyl cyclase (QC)): 13.3 µM
COc1cc(NC(=NC#N)NCCCn2ccnc2)cc(OC)c1 [Example 57]		0.91		
COc1cc(NC(=NC#N)NCCCn2ccnc2)cc(OC)c1OC [Example 60]		0.88		
N#CN=C(NCCCn1ccnc1)NCc1ccccc1 [Example 68]		8.17	22.5	
Cc1ccc(NC(=NC#N)NCCCn2ccnc2)cc1 [Example 75]		1.34		
COc1ccc(NC(=N)NCCCn2ccnc2)cc1OC [Example 92]		204		
CN=C(NCCCn1ccnc1)Nc1ccc(OC)c(OC)c1 [Example 93]		3.62		
CCNC(=O)NCCCn1ccnc1 [Example 96]		19.2		
O=C(NCCCn1ccnc1)Nc1cc(F)cc2c1OCOC2 [Example 97]			19.0	IC50 (glutaminyl cyclase (QC)): 12 µM
COc1ccc(NC(=O)NCCCn2ccnc2)cc1OC1CCCC1 [Example 98]		0.62	2.87	
CCCCCCCOc1ccc(NC(=O)NCCCn2ccnc2)cc1 [Example 99]			5.6	IC50 (glutaminyl cyclase (QC)): 9.9 µM
COc1ccc(NC(=S)NCc2ccccc2Cn2ccnc2)cc1OC [Example 103]		4.84	16.27	
COc1ccc(NC(=S)NCc2cccc(Cn3ccnc3)c2)cc1OC [Example 104]		3.52		
COc1ccc(NC(=S)NCc2ccc(Cn3ccnc3)cc2)cc1OC [Example 105]		1.86		
S=C(Cc1ccccc1)NCCCn1ccnc1 [Example 113]		4.62		
S=C(Cc1cccs1)NCCCn1ccnc1 [Example 114]		3.29		
CCC(C(=S)NCCCn1ccnc1)c1ccccc1 (centres unmarked) [Example 117]		3.57		

Now from value to molecule, other results behind:

melting point [°C]	Ki (glutaminyl cyclase (QC)) [µM]	Res. Act. (%) (glutaminyl cyclase (QC))	Structure (SMILES)	further results
148 to 150			COc1ccc(CC(=S)NCCCn2ccnc2)cc1OC	
120 to 120.5			COc1ccc(NC(=S)NCCCn2ccnc2)c(OC)c1	
103 to 103.5			S=C(NCCCn1ccnc1)Nc1ccc2c(c1)OCCO2	
115 to 115.6			S=C(NCCCn1ccnc1)Nc1ccc2c(c1)OCO2	
89.5 to 90			COc1cccc(NC(=S)NCCCn2ccnc2)c1	
127 to 128			S=C(NCCCn1ccnc1)NCc1ccccc1	
146.5 to 147			CN(C)c1ccc(NC(=S)NCCCn2ccnc2)cc1	
100 to 100.5			CCc1ccc(NC(=S)NCCCn2ccnc2)cc1	
		9.7	COc1ccc(NC(=S)NCCCn2ccnc2)cc1 [Example 11, 1-(3-(1H-imidazol-1-yl)propyl)-3-(4-methoxyphenyl)thiourea]	
	0.86	3.64	S=C(NCCCn1ccnc1)Nc1ccc(-c2cnco2)cc1 [Example 17]	
	2.89	9.0	N#Cc1ccc(NC(=S)NCCCn2ccnc2)cc1 [Example 22]	
		7.2	CCOc1ccc(NC(=S)NCCCn2ccnc2)cc1 [Example 27, 1-(3-(1H-imidazol-1-yl)propyl)-3-(4-ethoxyphenyl)thiourea]	
	3.93		COc1ccc(CNC(=S)NCCCn2ccnc2)cc1 [Example 29]	
140 to 140.5			CSc1ccc(NC(=S)NCCCn2ccnc2)cc1 [Example 33, 1-(3-(1H-imidazol-1-yl)propyl)-3-(4-(methylthio)phenyl)thiourea]	
	2.12	23.5	S=C(NCCCn1ccnc1)Nc1ccc(I)cc1 [Example 38]	
	2.52		S=C(NCCCn1ccnc1)Nc1ccc(Br)cc1 [Example 39]	
		61.4	S=C(NCCCn1ccnc1)NCc1ccco1 [Example 45]	IC50 (glutaminyl cyclase (QC)): 10 µM
		42.7	S=C(NCCCn1ccnc1)NCc1ccc2c(c1)OCO2 [Example 47]	
	0.73		N#CN=C(NCCCn1ccnc1)Nc1ccc2c(c1)OCO2 [Example 59]	
